This note sets out measurements from patent publication US10626109B2, “N-hetaryl(thio)carbonyl-2-(benzocycloalken-1-yl)cyclamines and their use as fungicides” (BAYER CROPSCIENCE AKTIENGESELLSCHAFT, priority 2013, dated 2020).

Like-named read-outs stand apart in the source and are kept apart here. Marks after values point to notes of the source that are not given here.

For one data set, the system named is Uromyces appendiculatus. Kind of data set: In vivo preventive test on Uromyces appendiculatus (bean rust). Conditions: for protection: in words, at a dose of 500 and 100 ppm of active ingredient. As to the method: [table] The active ingredients are made soluble and homogenized in a mixture of Dimethyl sulfoxide/Acetone//Tween® 80 and then diluted in water to the desired concentration. The young plants of bean are treated by spraying the active ingredient prepared as described above. Control plants are treated only with an aqueous solution of Acetone/Dimethyl sulfoxide/Tween® 80. After 24 hours, the plants are contaminated by spraying the leaves with an aqueous suspension of Uromyces appendiculatus spores. The contaminated bean plants are incubated for 24 hours at 20° C. and at 100% relative humidity and then for 10 days at 20° C. and at 70-80% relative humidity. The test is evaluated 11 days after the inoculation. 0% means an efficacy which corresponds to that of the control plants while an efficacy of 100% means that no disease is observed.

For another data set, the system named is Puccinia recondita. As to the kind of experiment: In vivo preventive test on Puccinia recondita (brown rust on wheat). The settings on record: for protection: in words, at a dose of 500 and 100 ppm of active ingredient, analogues 11 and 13 in very similar conditions. As to the method:
[table] […] The young plants of wheat are treated by spraying the active ingredient prepared as described above. […] After 24 hours, the plants are contaminated by spraying the leaves with an aqueous suspension of Puccinia recondita spores. The contaminated wheat plants are incubated for 24 hours at 20° C. and at 100% relative humidity and then for 10 days at 20° C. and at 70-80% relative humidity. The test is evaluated 11 days after the inoculation. 0% means an efficacy which corresponds to that of the control plants while an efficacy of 100% means that no disease is observed.

The next data set deals with Sphaerotheca fuliginea. Kind of data set: In vivo preventive test on Sphaerotheca fuliginea (powdery mildew on cucurbits). Conditions: for Efficacy: Table F1; for protection: in words, at a dose of 500 and 100 ppm of active ingredient, analogue 13 in very similar conditions. As to the method: [table] […] The young plants of gherkin are treated by spraying the active ingredient prepared as described above. […] After 24 hours, the plants are contaminated by spraying the leaves with an aqueous suspension of Sphaerotheca fuliginea spores. The contaminated gherkin plants are incubated for 72 hours at 18° C. and at 100% relative humidity and then for 12 days at 20° C. and at 70-80% relative humidity. The test is evaluated 15 days after the inoculation. 0% means an efficacy which corresponds to that of the control plants while an efficacy of 100% means that no disease is observed.

A short description of data set [1]: log P by HPLC on reversed-phase column (C 18), EEC Directive 79/831 Annex V.A8. It counts as physicochemical. Here is the method:
In table 1, the log P values were determined in accordance with EEC Directive 79/831 Annex V.A8 by HPLC (High Performance Liquid Chromatography) on a reversed-phase column (C 18), using the method described below: Temperature: 40° C.; Mobile phases: 0.1% aqueous formic acid and acetonitrile; linear gradient from 10% acetonitrile to 90% acetonitrile. Calibration was carried out using unbranched alkan-2-ones (comprising 3 to 16 carbon atoms) with known log P values (determination of the log P values by the retention times using linear interpolation between two successive alkanones). lambda-max-values were determined using UV-spectra from 200 nm to 400 nm and the peak values of the chromatographic signals. In table 2, M+H (Apcl+) and log P are defined as for table 1.

The mark [2] stands for this setting: Table 1, HPLC, 0.1% aqueous formic acid and acetonitrile, 40° C., second value of a mixture of two diastereoisomers.
Setting [3] is: Table 1, HPLC, 0.1% aqueous formic acid and acetonitrile, 40° C., single value, or first value of a mixture of two diastereoisomers.
Setting [4] is: Table C2, dose 100 ppm, formulated in DMF with 2% of alkylarylpolyglycolether.
The mark [5] stands for this setting: Table C2, dose 500 ppm, formulated in DMF with 2% of alkylarylpolyglycolether.

`Cn1nc(C(F)F)c(C(=O)N2CCCC2C2CCCc3ccccc32)c1F` (mixture of isomers) [I.26]: the Efficacy in the data set on Uromyces appendiculatus (Table G1, dose 100 ppm) worked out at 100%; in the data set with Uromyces appendiculatus (Table G1, dose 500 ppm), 100%; in the data set with Uromyces appendiculatus (Table G2, dose 100 ppm), 100%; in the data set with Uromyces appendiculatus (Table G2, dose 500 ppm), 100%; with Puccinia recondita (Table C2, dose 100 ppm, wheat) it was 88%; with Puccinia recondita (Table C2, dose 500 ppm, wheat), 98%. In addition, the Efficacy with Sphaerotheca fuliginea (dose 100 ppm, gherkin) was 100%; in the data set with Sphaerotheca fuliginea (dose 500 ppm, gherkin) it was 100%. Besides, the protection entry in the data set on Uromyces appendiculatus is “total protection”; with Uromyces appendiculatus (listed as 1.26), “total to average (at least 50%) protection”; in the data set with Puccinia recondita (wheat), “excellent (at least 90%) to high (at least 80%) protection”; with Sphaerotheca fuliginea (gherkin) it was “total protection”. Also, the logP stood at 3.61 in data set [1] (setting [2]) and 3.48 in data set [1] (setting [3]).
Regarding `Cn1cc(C(=O)N2CCCC2C2CCCc3ccccc32)c(C(F)F)n1` (mixture of isomers) [I.27], the Efficacy amounted to 56% in the data set with Uromyces appendiculatus (Table G2, dose 100 ppm) and 100% in the data set on Uromyces appendiculatus (Table G2, dose 500 ppm). Besides, in the data set on Uromyces appendiculatus, the protection result is reported as “total to average (at least 50%) protection”. Moreover, the logP in data set [1] (setting [2]) is 3.21; in data set [1] (setting [3]) it was 2.94.
`Cn1nc(C(=O)N2CCCC2C2CCc3cc(F)cc(F)c32)c(C(F)F)n1` (single isomer, unassigned) [I.14, [2-(5,7-difluoro-2,3-dihydro-1H-inden-1-yl)pyrrolidin-1-yl][5-(difluoromethyl)-2-methyl-2H-1,2,3-triazol-4-yl]methanone]: in data set [1] (reversed-phase HPLC column (C 18), Table 1, HPLC, 0.1% aqueous formic acid and acetonitrile, 40° C., single value, or first value of a mixture of two diastereoisomers, read-out: logP), the chromatographic logP was determined as 3.41.
`Cn1nc(C(=O)N2CCCC2C2CCc3cc(F)cc(F)c32)c(C(F)F)n1` (single isomer, unassigned) [I.15, [2-(5,7-difluoro-2,3-dihydro-1H-inden-1-yl)pyrrolidin-1-yl][5-(difluoromethyl)-2-methyl-2H-1,2,3-triazol-4-yl]methanone]: in data set [1] (reversed-phase HPLC column (C 18), separated diastereoisomers, preparation Example 1, read-out: log P), the chromatographic logP was 3.63.
With `Cc1nc(C(F)F)c(C(=O)N2CCCC2C2CCc3cc(F)cc(F)c32)s1` (single isomer, unassigned) [I.37], the logP in data set [1] (setting [3]) stood at 3.52.
`Cc1nc(C(F)F)c(C(=O)N2CCCC2C2CCc3cc(F)cc(F)c32)s1` (single isomer, unassigned) [I.38]: the logP in data set [1] (setting [3]) worked out at 3.55.
Consider `Cn1cc(C(=O)N2CCCC2C2CCc3cc(F)cc(F)c32)c(C(F)(F)F)c1` (single isomer, unassigned) [I.39], for which the logP in data set [1] (setting [3]) is 3.68.
Same read-out and setting: to `Cn1cc(C(=O)N2CCCC2C2CCc3cc(F)cc(F)c32)c(C(F)(F)F)c1` (single isomer, unassigned) [I.40] belongs 3.70.
For the compound `Cn1nc(C(F)F)c(C(=O)N(CCc2ccccc2)C2CC2)c1F` [11 from WO-2011/151369, N-cyclopropyl-3-(difluoromethyl)-5-fluoro-1-methyl-N-(2-phenylethyl)-1H-pyrazole-4-carboxamide], the results for the Efficacy in the data set with Puccinia recondita (setting [4]) and with Puccinia recondita (setting [5]) were 0 ^(a) % and 10 ^(a) %, respectively. In the data set with Puccinia recondita (wheat), the protection result is “poor (less than 40%) to no protection”.
For `CC(CN(C(=O)c1c(C(F)F)nn(C)c1F)C1CC1)c1ccccc1` (stereo not drawn) [13 from WO-2011/151369, N-cyclopropyl-3-(difluoromethyl)-5-fluoro-1-methyl-N-(2-phenylpropyl)-1H-pyrazole-4-carboxamide, reference compound], the Efficacy in the data set on Puccinia recondita (setting [4]) is 10 ^(a) %; with Puccinia recondita (setting [5]), 40 ^(a) %; in the data set on Sphaerotheca fuliginea (dose 100 ppm, formulated in DMF with 2% of alkylarylpolyglycolether), 3 ^(a) %; with Sphaerotheca fuliginea (dose 500 ppm, formulated in DMF with 2% of alkylarylpolyglycolether) it was 63 ^(a) %. In addition, the figures for the protection result in the data set on Puccinia recondita (wheat) and in the data set on Sphaerotheca fuliginea (gherkin) were “poor (less than 40%) to no protection” and “average (at least 60%) to poor (less than 10%) protection”, respectively.
Regarding `CCC(c1ccccc1)C1CCCN1C(=O)c1c(C(F)F)nn(C)c1F` (stereo not drawn) [53 from WO2012/052491, [3-(difluoromethyl)-5-fluoro-1-methyl-1H-pyrazol-4-yl][2-(1-phenylpropyl)pyrrolidin-1-yl]methanone, reference compound], the Efficacy was found to be 0% with Uromyces appendiculatus (Table G1, dose 100 ppm) and 77% with Uromyces appendiculatus (Table G1, dose 500 ppm). Moreover, in the data set on Uromyces appendiculatus, the protection result is “good (at least 70%) to no protection”.
In the case of `CCC(c1ccccc1)C1CCCCN1C(=O)c1c(C(F)F)nn(C)c1F` (stereo not drawn) [136 from WO-2012/052489, [3-(difluoromethyl)-5-fluoro-1-methyl-1H-pyrazol-4-yl][2-(1-phenylpropyl)piperidin-1-yl]methanone], the Efficacy in the data set with Puccinia recondita (Table C1, dose 100 ppm, wheat) is 50%; in the data set with Puccinia recondita (Table C1, dose 500 ppm, wheat) it was 65%. In addition, the protection entry in the data set on Puccinia recondita (wheat) is recorded as “average protection”.
Take `Cc1nn(C)c(F)c1C(=O)N(C1CC1)C(C)C1CCCc2ccccc21` (stereo not drawn) [I.2 from WO-2010/086311, N-cyclopropyl-5-fluoro-1,3-dimethyl-N-[1-(1,2,3,4-tetrahydronaphthalen-1-yl)ethyl]-1H-pyrazole-4-carboxamide, reference compound]: the Efficacy in the data set with Uromyces appendiculatus (Table G2, dose 100 ppm) came out at 0%; in the data set on Uromyces appendiculatus (Table G2, dose 500 ppm) it was 88%. Also, the protection entry with Uromyces appendiculatus was “high (at least 80%) to no protection”.
On to `Cn1nc(C(F)F)c(C(=O)N2CCCC2C2CCc3c(F)cccc32)c1Cl` (stereo not drawn) [I.02], for which the logP in data set [1] (setting [3]) turned out to be 3.48.
Turning to `Cn1cc(C(=O)N2CCCC2C2CCc3cc(Cl)cc(Cl)c32)c(C(F)F)n1` (stereo not drawn) [I.08], in data set [1] (setting [3]), the logP was determined as 3.61.
As for `Cn1nc(C(F)F)c(C(=O)N2CCCC2C2CCc3cc(Cl)cc(Cl)c32)c1F` (stereo not drawn) [I.10], the logP in data set [1] (setting [3]) is 4.14.
For `Cn1cc(C(=O)N2CCCC2C2CCc3cc(F)cc(F)c32)c(C(F)F)n1` (stereo not drawn) [I.11], in data set [1] (setting [3]), the logP came out at 2.96.
In the case of `Cn1nc(C(F)F)c(C(=O)N2CCCC2C2CCc3cc(F)ccc32)c1Cl` (stereo not drawn) [I.16], the lipophilicity (logP) in data set [1] (setting [3]) is reported as 3.50.
For the compound `Cn1cc(C(=O)N2CCCC2C2CCc3ccc(C(C)(C)C)cc32)c(C(F)F)n1` (stereo not drawn) [I.22], the logP in data set [1] (setting [3]) was determined as 4.16.
The same measure, in the same setting: to `Cn1nc(C(F)F)c(C(=O)N2CCCC2C2CCc3ccc(C(C)(C)C)cc32)c1Cl` (stereo not drawn) [I.23] belongs 4.82.
For the compound `Cn1nc(C(F)F)c(C(=O)N2CCCCC2C2CCCc3ccccc32)c1F` (stereo not drawn) [I.31], the Efficacy with Puccinia recondita (Table C1, dose 100 ppm, wheat) was found to be 64%; with Puccinia recondita (Table C1, dose 500 ppm, wheat) it was 93%. Also, the protection result with Puccinia recondita (wheat) is given as “excellent (at least 90%) to average (at least 60%) protection”. Besides, the logP in data set [1] (setting [3]) was found to be 3.67.
For `Cn1cc(C(=O)N2CCCCC2C2CCCc3ccccc32)c(C(F)F)n1` (stereo not drawn) [I.32], the lipophilicity (logP) in data set [1] (setting [3]) turned out to be 3.17.
On the same count and under the same terms, the result for `Cn1nc(C(F)F)c(C(=S)N2CCCC2C2CCc3c(F)cccc32)c1F` (stereo not drawn) [I.41] reads 4.01.
Turning to `c1ccc2c(c1)CCC2C1CCCCN1` (stereo not drawn) [IIa.01, 2-(2,3-dihydro-1H-inden-1-yl)piperidine], in data set [1] (logP), the chromatographic logP turned out to be 0.52.
The same measure, in the same setting: the result for `c1ccc2c(c1)CCCC2C1CCCCN1` (stereo not drawn) [IIa.02, 2-(1,2,3,4-tetrahydronaphthalen-1-yl)piperidine] reads 1.21; that for `c1ccc2c(c1)CCCCC2C1CCCCN1` (stereo not drawn) [IIa.03, 2-(6,7,8,9-tetrahydro-5H-benzo[7]annulen-5-yl)piperidine], 1.31.
For `c1ccc2c(c1)OCCC2C1CCCCN1` (stereo not drawn) [IIa.04, 2-(3,4-dihydro-2H-chromen-4-yl)piperidine], the chromatographic logP in data set [1] (reversed-phase HPLC column (C 18), Table 2, compounds of formula (IIa), HPLC as for table 1, read-out: logP) worked out at 0.82.

Usually logP stands for the decadic logarithm of the partition coefficient of the neutral form, usually between octanol and water.
